# Laboratory results taken from ChEMBL document CHEMBL1158922, “Antineoplastic agents, 177. Isolation and structure of phyllanthostatin 6” (1990).
# System: P388
# Experiment: Cytotoxicity against mouse P388 cells
# Assay type: functional
# Settings: read-out: ED50 (the source's name)
structure (smiles),measurement,value
CC1CO[C@]2(CC1OC(=O)/C=C/c1ccccc1)OC1CC(C(=O)O[C@@H]3O[C@H](CO)[C@@H](O)[C@H](O)[C@H]3O[C@@H]3O[C@H](C)[C@@H](O)[C@H](O)[C@H]3O)CCC1[C@]21CO1 (stereo partly specified) [PHYLLANTHOSTATIN 6],EC50,0.35 µg/mL
